Measured values taken from patent US9023370B2, “Conjugates comprising nanoparticles coated with platinum containing compounds” (priority 2008, dated 2015).

Legend:
[1] = Stability: platinum drug release after incubation, quantified by ICP-MS; assay type: physicochemical; conditions: 48 h incubation with cellular medium at 37° C.
Description: The stability of these conjugates was compared with the stability of the conjugates of the invention. […] The stability tests were based on inductively coupled plasma mass spectroscopy ICP-MS quantifications of platinum drug release after incubation of both systems.

A549 tumor cells = assay: MTT assay of the conjugates in tumoral cells; assay type: cell-based, human; conditions: 48 h
Description: Cells were plated in a multiwell-96 plate (Iwaki) at 4×10^3 cells/well and 24 hours later the medium was changed for treatments. Tetrazolium salt 3-(4,5-dimethylthiazol-2-yl)-2,5-diphenyltetrazoliumbromide (MTT, Acros Organics) was used for mitochondrial activity evaluation in cell viability studies 24 and 48 hours post-treatments. Plates were measured in MicroPlate Reader Model 550 (BIO-RAD) and data were processed with Excel and SPSS software. Using absorbance measurements [time zero, (Az), control growth, (C), and test growth in the presence of drug at the various concentration levels (Ai)], the percentage growth was calculated at each of the drug concentration levels. The assays were done with three cellular cancer lines: HeLa, A549 and HEK.
A and G represent the control values at 0 and 48 h respectively.

[2] = Zeta potential of nanoparticles and conjugates; assay type: physicochemical; conditions: pH 7.0
Description: The zeta potential of nanoparticles and conjugates was determined using a Malvern ZetaSizer Analyzer (Malvern Instruments, UK). These measurements were performed with control of the pH (7.0).

[3] = parameters: species or system SCID mice; conditions: mouse, in vivo
Description: (§1) Fifteen SCID mice were choosen for the in vivo experiment. Mouse were injected 20 106 A549 lung tumoral cells in their flanks. Three random groups of five mice each were prepared. Then we waited until the tumour grew to an easily measurable size. The first group (A) was given no treatment. The second group (B) was given mild doses of commercial cisplatin (30 mg per Kg animal weight). The third group (C) was treated with the conjugates of example 4.1 with […] of 1.9 mg of platinum drug per litre in one intra-peritoneal dose. Tumour size (as a sign of therapeutical success) and animal weight (as a sign of secondary effects) were measured every three days. After fifteen days the experiments were stopped.

A549 lung tumoral cells = assay: Animal assay: tumour size; assay type: in vivo; conditions: SCID mice, A549 flank tumours, fifteen days; cisplatin 30 mg per Kg; example 4.1 100 ml of 1.9 mg platinum drug per litre, one intra-peritoneal dose
Description: as §1

**Q.** Which “release of platinum drug from the nanoparticle” value [1] does the source give for “AuNP(NP:4 nm)-MUA-cisplatin [example 5, reference compound]” here?
**A.** Its value is “release of platinum drug from the nanoparticle was only observed”.

**Q.** Which results are given for AuNP(NP:13 nm)-MUA [example 2.1]?
**A.** effect on A549 lung tumoral cells viability (MTT) (A549 tumor cells): did not elicit any response; ζ-potential [2]: −65.8 mV

**Q.** Which “animal weight (sign of secondary effects)” value [3] does the source give for `N.N.[Cl][Pt][Cl]` [commercial cisplatin, cisplatin, reference compound] here?
**A.** The value was “loose of body weight”.

**Q.** And the “kidney and hepatic dysfunction (preliminary biochemical measurements)” value [3]?
**A.** The value was “did not indicate any kidney and hepatic significant dysfunction”.

**Q.** And the tumour size (A549 lung tumoral cells)?
**A.** The tumour size was “reduction of tumour size”.

**Q.** Which “effect on A549 lung tumoral cells viability (MTT)” value (A549 tumor cells) does the source give for `N.N.O.O.O=[N+]([O-])[O-].O=[N+]([O-])[O-].[Pt+2]` [example 3, cis-[Pt(NH3)2(H2O)2](NO3)2] here?
**A.** The value was “did not elicit any response”.
